Read-outs that look alike come from different tables or passages of the source.
Key:
[1] = molecular target: T1, rod CNG channel (CNGA1/CNGB1a) (Bos taurus, UniProt Q00194+Q28181); experiment: inside-out patch clamp, Xenopus oocytes, current relative to saturating cGMP; type: biochemical; conditions: partial agonist; up to 5 mM analogue vs 3 mM cGMP, pH 7.4, room temperature
T1 construct: heterotetramer 3 CNGA1 : 1 CNGB1a; subunits in pGEMHE, cRNA ratio 1:4, expressed in Xenopus laevis oocytes; inside-out patches

[2] = molecular target: T2, cone CNG channel (CNGA3/CNGB3) (Homo sapiens, UniProt Q16281+Q9NQW8); experiment: as above; type: biochemical; conditions: partial agonist; saturating analogue vs 1 mM cGMP, pH 7.4, room temperature
T2 construct: heterotetramer 3 CNGA3 : 1 CNGB3; subunits in pGEMHE, cRNA ratio 1:2.5, expressed in Xenopus laevis oocytes; inside-out patches
T2 sequence (Q16281 1-694): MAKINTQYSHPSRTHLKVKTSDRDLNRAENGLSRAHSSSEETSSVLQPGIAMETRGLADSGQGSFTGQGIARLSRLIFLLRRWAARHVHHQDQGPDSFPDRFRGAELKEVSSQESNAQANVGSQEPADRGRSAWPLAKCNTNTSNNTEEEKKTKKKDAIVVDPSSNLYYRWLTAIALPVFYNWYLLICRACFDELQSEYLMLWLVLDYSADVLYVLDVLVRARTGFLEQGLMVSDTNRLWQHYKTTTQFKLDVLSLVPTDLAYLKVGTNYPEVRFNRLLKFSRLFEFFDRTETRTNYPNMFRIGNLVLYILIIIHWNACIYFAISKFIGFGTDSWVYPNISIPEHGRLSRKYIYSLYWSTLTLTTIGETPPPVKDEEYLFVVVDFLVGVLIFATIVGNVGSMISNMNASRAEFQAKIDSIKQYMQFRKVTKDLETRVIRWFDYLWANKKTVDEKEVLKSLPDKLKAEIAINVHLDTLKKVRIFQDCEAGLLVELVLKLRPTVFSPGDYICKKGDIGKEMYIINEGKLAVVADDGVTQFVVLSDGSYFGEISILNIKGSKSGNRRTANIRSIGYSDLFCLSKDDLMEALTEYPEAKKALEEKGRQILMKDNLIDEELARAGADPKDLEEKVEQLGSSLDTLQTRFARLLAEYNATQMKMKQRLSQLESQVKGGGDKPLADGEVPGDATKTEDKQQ
T2 sequence (Q9NQW8 1-809): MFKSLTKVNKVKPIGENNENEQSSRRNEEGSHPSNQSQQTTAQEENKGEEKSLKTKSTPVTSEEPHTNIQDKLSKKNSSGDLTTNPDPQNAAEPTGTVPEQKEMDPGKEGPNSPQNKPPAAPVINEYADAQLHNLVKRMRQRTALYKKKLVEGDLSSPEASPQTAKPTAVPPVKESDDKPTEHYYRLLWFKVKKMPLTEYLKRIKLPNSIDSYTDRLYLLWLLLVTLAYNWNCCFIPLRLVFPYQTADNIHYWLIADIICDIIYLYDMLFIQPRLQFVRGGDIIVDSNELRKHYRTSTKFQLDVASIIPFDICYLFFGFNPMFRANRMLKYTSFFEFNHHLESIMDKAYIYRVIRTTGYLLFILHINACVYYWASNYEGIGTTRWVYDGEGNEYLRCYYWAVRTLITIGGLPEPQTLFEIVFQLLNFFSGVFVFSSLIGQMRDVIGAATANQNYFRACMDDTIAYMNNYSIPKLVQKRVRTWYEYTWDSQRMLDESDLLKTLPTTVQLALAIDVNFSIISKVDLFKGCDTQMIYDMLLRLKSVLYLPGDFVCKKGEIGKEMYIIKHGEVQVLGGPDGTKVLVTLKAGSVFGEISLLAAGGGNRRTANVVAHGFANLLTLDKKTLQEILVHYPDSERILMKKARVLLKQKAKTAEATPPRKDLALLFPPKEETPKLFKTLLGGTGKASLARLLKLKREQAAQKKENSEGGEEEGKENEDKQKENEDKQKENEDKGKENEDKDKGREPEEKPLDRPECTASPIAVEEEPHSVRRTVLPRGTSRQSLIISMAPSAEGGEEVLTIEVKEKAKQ

[3] = molecular target: T1, rod CNG channel (CNGA1/CNGB1a); experiment: inside-out patch clamp, Xenopus oocytes, Hill fit; type: cell-based
[4] = molecular target: T2, cone CNG channel (CNGA3/CNGB3); experiment: inside-out patch clamp, Xenopus oocytes, Hill fit; type: cell-based

T1 sequence (Q00194 whole entry): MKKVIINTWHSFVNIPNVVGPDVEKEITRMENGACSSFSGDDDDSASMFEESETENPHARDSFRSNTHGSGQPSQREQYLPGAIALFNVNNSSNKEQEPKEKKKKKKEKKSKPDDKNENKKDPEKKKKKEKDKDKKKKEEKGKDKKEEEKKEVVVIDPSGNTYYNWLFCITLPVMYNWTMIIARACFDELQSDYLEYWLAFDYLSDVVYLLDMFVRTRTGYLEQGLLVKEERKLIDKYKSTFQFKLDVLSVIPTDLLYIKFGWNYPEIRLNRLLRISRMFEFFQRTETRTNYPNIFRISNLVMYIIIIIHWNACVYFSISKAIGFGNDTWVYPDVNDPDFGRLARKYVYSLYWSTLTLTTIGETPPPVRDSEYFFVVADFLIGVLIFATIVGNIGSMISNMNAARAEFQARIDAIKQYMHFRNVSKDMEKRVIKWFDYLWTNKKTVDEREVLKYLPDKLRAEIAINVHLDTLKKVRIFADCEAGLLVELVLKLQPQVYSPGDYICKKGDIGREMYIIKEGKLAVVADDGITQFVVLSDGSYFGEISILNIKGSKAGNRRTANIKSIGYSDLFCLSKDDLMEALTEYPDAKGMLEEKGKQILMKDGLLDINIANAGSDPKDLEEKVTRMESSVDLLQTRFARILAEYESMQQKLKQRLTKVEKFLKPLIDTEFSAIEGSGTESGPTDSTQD
T1 sequence (Q28181 whole entry): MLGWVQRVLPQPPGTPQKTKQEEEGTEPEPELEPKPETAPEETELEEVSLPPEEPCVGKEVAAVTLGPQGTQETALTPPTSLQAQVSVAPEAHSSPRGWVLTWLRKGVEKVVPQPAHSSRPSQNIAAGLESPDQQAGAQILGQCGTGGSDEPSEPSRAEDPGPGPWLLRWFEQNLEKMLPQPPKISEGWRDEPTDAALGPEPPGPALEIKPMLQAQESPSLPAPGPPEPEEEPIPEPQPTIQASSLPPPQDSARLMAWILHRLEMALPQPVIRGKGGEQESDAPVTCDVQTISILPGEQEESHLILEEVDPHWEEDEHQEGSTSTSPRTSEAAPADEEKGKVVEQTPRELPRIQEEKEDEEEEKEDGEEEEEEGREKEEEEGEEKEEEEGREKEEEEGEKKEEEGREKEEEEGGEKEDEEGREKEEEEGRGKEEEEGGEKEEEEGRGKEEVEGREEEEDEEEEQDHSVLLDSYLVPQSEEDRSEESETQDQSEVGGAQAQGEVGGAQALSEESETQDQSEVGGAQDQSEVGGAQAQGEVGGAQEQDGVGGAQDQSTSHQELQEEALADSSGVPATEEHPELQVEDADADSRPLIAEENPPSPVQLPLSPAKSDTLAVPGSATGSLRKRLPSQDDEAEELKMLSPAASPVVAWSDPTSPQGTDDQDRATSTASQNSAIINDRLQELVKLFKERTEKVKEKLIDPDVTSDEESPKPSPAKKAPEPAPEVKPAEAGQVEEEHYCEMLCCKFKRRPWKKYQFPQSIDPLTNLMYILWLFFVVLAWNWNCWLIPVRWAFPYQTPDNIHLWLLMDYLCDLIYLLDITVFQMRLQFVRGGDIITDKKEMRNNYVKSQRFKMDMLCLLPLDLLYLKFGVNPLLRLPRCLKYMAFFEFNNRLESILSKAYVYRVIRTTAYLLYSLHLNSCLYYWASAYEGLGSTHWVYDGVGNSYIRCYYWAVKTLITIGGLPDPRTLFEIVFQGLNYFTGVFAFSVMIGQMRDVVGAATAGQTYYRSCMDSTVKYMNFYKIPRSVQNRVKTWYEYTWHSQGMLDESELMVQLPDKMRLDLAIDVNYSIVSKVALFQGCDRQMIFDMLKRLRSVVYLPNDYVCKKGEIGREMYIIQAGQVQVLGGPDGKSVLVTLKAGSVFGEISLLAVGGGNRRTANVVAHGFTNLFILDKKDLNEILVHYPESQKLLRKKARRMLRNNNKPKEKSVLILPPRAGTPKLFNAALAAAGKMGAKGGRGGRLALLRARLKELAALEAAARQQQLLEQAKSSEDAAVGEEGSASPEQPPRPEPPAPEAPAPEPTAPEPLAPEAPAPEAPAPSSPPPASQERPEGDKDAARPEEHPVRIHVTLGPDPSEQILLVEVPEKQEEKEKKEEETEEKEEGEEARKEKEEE

% activation relative to cGMP [1]	EC50 [3] [µM]	EC50 [4] [µM]	EC50 ([4]; channel activation (agonist), +100 mV, pH 7.4, room temperature) [µM]	SMILES	% activation relative to cGMP [2]
~ 11%				Nc1nc2c(ncn2[C@@H]2O[C@@H]3COP(O)(=S)O[C@H]3[C@H]2O)c(=O)[nH]1 (stereo partly shown) [compound 4, Rp-cGMPS]	~ 43.6%
	0.77	0.09		Nc1nc(=O)c2nc(Sc3ccc(Cl)cc3)n([C@@H]3O[C@@H]4COP(=O)(O)O[C@H]4[C@H]3O)c2[nH]1 [compound 2, 8-pCPT-cGMP]	
~ 41.2%				O=c1c2ncn([C@@H]3O[C@@H]4COP(=O)(O)O[C@H]4[C@H]3O)c2nc2[nH]c(-c3ccccc3)cn12 [compound 3, PET-cGMP]	PET-cGMP, Rp-cGMPS, Sp-cGMPS, and Sp-8-pCPT-cGMPS, was only partially effective when activating cone CNG channels
	6.18		1.04	Nc1nc2c(nc(Br)n2[C@@H]2O[C@@H]3COP(=O)(O)O[C@H]3[C@H]2O)c(=O)[nH]1 [compound 1, 8-Br-cGMP]	
	42.8	131		Nc1nc2c(nc(Sc3ccc(Cl)cc3)n2[C@@H]2O[C@@H]3CO[P@](O)(=S)O[C@H]3[C@H]2O)c(=O)[nH]1 [compound 7, Sp-8-pCPT-cGMPS]	
~ 62.8%		2.88		Nc1nc2c(ncn2[C@@H]2O[C@@H]3CO[P@](O)(=S)O[C@H]3[C@H]2O)c(=O)[nH]1 [compound 5, Sp-cGMPS]	
		18.7		Nc1nc2c(ncn2[C@@H]2O[C@@H]3COP(=O)(O)O[C@H]3[C@H]2O)c(=O)[nH]1 [cGMP]	

— article PMC11027099 (ACS Chemical Neuroscience, 2024)
